Assay results from patent publication US11319299B2, “Substituted carboxamides as inhibitors of WDR5 protein-protein binding” (PROPELLON THERAPEUTICS INC., priority 2016, dated 2022).

Each molecule was assayed against WDR5 (Homo sapiens (Human), UniProt P61964) (assay: Surface Plasmon Resonance (SPR) assay, KD and residence time). Settings: surface plasmon resonance (SPR) assay; read-out: WDR5 binding affinity (KD).
Assay type: binding

`C[C@@H]1CN(c2cc(F)c(-c3ccc(N4CCCC4)cc3)cc2NC(=O)c2c[nH]c(=O)cc2C(F)(F)F)C[C@H](C)N1C` [Example 114, N-[4-fluoro-5-(4-pyrrolidin-1-ylphenyl)-2-[(3R,5S)-3,4,5-trimethylpiperazin-1-yl]phenyl]-6-oxo-4-(trifluoromethyl)-1H-pyridine-3-carboxamide] and `C[C@@H]1CN(c2cc(F)c(-c3ccc(C(F)(F)F)cc3)cc2NC(=O)c2c[nH]c(=O)cc2C(F)(F)F)C[C@H](C)N1C` [Example 144, N-[4-fluoro-2-[(3R,5S)-3,4,5-trimethylpiperazin-1-yl]-5-[4-(trifluoromethyl)phenyl]phenyl]-6-oxo-4-(trifluoromethyl)-1H-pyridine-3-carboxamide] are within 1.5-fold of each other in Kd: 4.06 nM for the first, 6.06 nM for the second.

`CC(=O)Nc1cccc(C(=O)Nc2cc(-c3cnc(N4CCOCC4)nc3)c(F)cc2N2C[C@@H](C)N(C)[C@@H](C)C2)c1` [Example 115, 3-acetamido-N-[4-fluoro-5-(2-morpholin-4-ylpyrimidin-5-yl)-2-[(3R,5S)-3,4,5-trimethylpiperazin-1-yl]phenyl]benzamide] and `C[C@@H]1CN(c2cc(F)c(-c3cnc(N4CCOCC4)nc3)cc2NC(=O)c2cccc(N(C)C)c2)C[C@H](C)N1C` [Example 126, 3-(dimethylamino)-N-[4-fluoro-5-(2-morpholin-4-ylpyrimidin-5-yl)-2-[(3R,5S)-3,4,5-trimethylpiperazin-1-yl]phenyl]benzamide] cannot be ordered by Kd: greater than 200 nM for the first, 3500 nM for the second.

`C[C@@H]1CN(c2cc(F)c(-c3cccc(CN(C)C4COC4)c3)cc2NC(=O)c2c[nH]c(=O)cc2C(F)(F)F)C[C@H](C)N1C` [Example 118, N-[4-fluoro-5-[3-[[methyl(oxetan-3-yl)amino]methyl]phenyl]-2-[(3R,5S)-3,4,5-trimethylpiperazin-1-yl]phenyl]-6-oxo-4-(trifluoromethyl)-1H-pyridine-3-carboxamide] and `C[C@@H]1CN(c2cc(F)c(-c3cccc(CN4CCC(F)CC4)c3)cc2NC(=O)c2c[nH]c(=O)cc2C(F)(F)F)C[C@H](C)N1C` [Example 119, N-[4-fluoro-5-[3-[(4-fluoropiperidin-1-yl)methyl]phenyl]-2-[(3R,5S)-3,4,5-trimethylpiperazin-1-yl]phenyl]-6-oxo-4-(trifluoromethyl)-1H-pyridine-3-carboxamide] are within 1.5-fold of each other in Kd: 4.53 nM for the first, 5.12 nM for the second.

First: O=C(Nc1cc(-c2cnc(N3CCOCC3)nc2)c(F)cc1N1CCN2CCOCC2C1)c1c[nH]c(=O)cc1C(F)(F)F (centres unmarked) [Example 120, N-[2-(3,4,6,7,9,9a-hexahydro-1H-pyrazino[2,1-c][1,4]oxazin-8-yl)-4-fluoro-5-(2-morpholin-4-ylpyrimidin-5-yl)phenyl]-6-oxo-4-(trifluoromethyl)-1H-pyridine-3-carboxamide]
Second: C[C@@H]1CN(c2cc(F)c(-c3cnc(N4CCOCC4)nc3)cc2NC(=O)c2ccccc2C(F)(F)F)C[C@H](C)N1C [Example 141, N-[4-fluoro-5-(2-morpholin-4-ylpyrimidin-5-yl)-2-[(3R,5S)-3,4,5-trimethylpiperazin-1-yl]phenyl]-2-(trifluoromethyl)benzamide]
The Kd of the first is higher: greater than 200 nM for the first, 16.2 nM for the second. The second binds more tightly here.

First: C[C@@H]1CN(c2cc(F)c(-c3cnc(O)c(C#N)c3)cc2NC(=O)c2c[nH]c(=O)cc2C(F)(F)F)C[C@H](C)N1C [Example 123, N-[5-(5-cyano-6-hydroxypyridin-3-yl)-4-fluoro-2-[(3R,5S)-3,4,5-trimethylpiperazin-1-yl]phenyl]-6-oxo-4-(trifluoromethyl)-1H-pyridine-3-carboxamide]
Second: Cc1cc(-c2cc(NC(=O)c3c[nH]c(=O)cc3C(F)(F)F)c(N3C[C@@H](C)N(C)[C@@H](C)C3)cc2F)cnc1C#N [Example 132, N-[5-(6-cyano-5-methylpyridin-3-yl)-4-fluoro-2-[(3R,5S)-3,4,5-trimethylpiperazin-1-yl]phenyl]-6-oxo-4-(trifluoromethyl)-1H-pyridine-3-carboxamide]
The Kd of the first is 7.1-fold higher: 9.88 nM for the first, 1.4 nM for the second.

Going from `C[C@@H]1CN(c2cc(F)c(-c3ccc(N4CCOCC4)c(F)c3)cc2NC(=O)c2c[nH]c(=O)cc2C(F)(F)F)C[C@H](C)N1C` [Example 124, N-[4-fluoro-5-(3-fluoro-4-morpholin-4-ylphenyl)-2-[(3R,5S)-3,4,5-trimethylpiperazin-1-yl]phenyl]-6-oxo-4-(trifluoromethyl)-1H-pyridine-3-carboxamide] to `C[C@@H]1CN(c2cc(F)c(-c3ccccc3)cc2NC(=O)c2c[nH]c(=O)cc2C(F)(F)F)C[C@H](C)N1C` [Example 146, N-[4-fluoro-5-phenyl-2-[(3R,5S)-3,4,5-trimethylpiperazin-1-yl]phenyl]-6-oxo-4-(trifluoromethyl)-1H-pyridine-3-carboxamide], the Kd rises from 0.439 nM to 6.02 nM (14-fold).

Going from `C[C@@H]1CN(c2cc(F)c(-c3cccc(OCC4CC4)c3)cc2NC(=O)c2c[nH]c(=O)cc2C(F)(F)F)C[C@H](C)N1C` [Example 125, N-[5-[3-(cyclopropylmethoxy)phenyl]-4-fluoro-2-[(3R,5S)-3,4,5-trimethylpiperazin-1-yl]phenyl]-6-oxo-4-(trifluoromethyl)-1H-pyridine-3-carboxamide] to `C[C@@H]1CN(c2cc(F)c(-c3ccnc(C#N)c3)cc2NC(=O)c2c[nH]c(=O)cc2C(F)(F)F)C[C@H](C)N1C` [Example 133, N-[5-(2-cyanopyridin-4-yl)-4-fluoro-2-[(3R,5S)-3,4,5-trimethylpiperazin-1-yl]phenyl]-6-oxo-4-(trifluoromethyl)-1H-pyridine-3-carboxamide], the Kd falls from 10.9 nM to 1.33 nM (8.2-fold).

Compared with `C[C@@H]1CN(c2cc(F)c(-c3cnc(N4CCOCC4)nc3)cc2NC(=O)c2cocn2)C[C@H](C)N1C` [Example 127, N-[4-fluoro-5-(2-morpholin-4-ylpyrimidin-5-yl)-2-[(3R,5S)-3,4,5-trimethylpiperazin-1-yl]phenyl]-1,3-oxazole-4-carboxamide], `C[C@@H]1CN(c2cc(F)c(-c3cnc(N4CCOCC4)nc3)cc2NC(=O)c2c(Cl)cccc2Cl)C[C@H](C)N1C` [Example 139, 2,6-dichloro-N-[4-fluoro-5-(2-morpholin-4-ylpyrimidin-5-yl)-2-[(3R,5S)-3,4,5-trimethylpiperazin-1-yl]phenyl]benzamide] is lower in Kd: greater than 200 nM for the first, 5.86 nM for the second. The second binds more tightly here.

First: CC(C)Oc1ncc(-c2cc(NC(=O)c3c[nH]c(=O)cc3C(F)(F)F)c(N3C[C@@H](C)N(C)[C@@H](C)C3)cc2F)cn1 [Example 130, N-[4-fluoro-5-(2-propan-2-yloxypyrimidin-5-yl)-2-[(3R,5S)-3,4,5-trimethylpiperazin-1-yl]phenyl]-6-oxo-4-(trifluoromethyl)-1H-pyridine-3-carboxamide]
Second: C[C@@H]1CN(c2cc(F)c(-c3ccc(N(C)C)nc3)cc2NC(=O)c2c[nH]c(=O)cc2C(F)(F)F)C[C@H](C)N1C [Example 142, N-[5-[6-(dimethylamino)pyridin-3-yl]-4-fluoro-2-[(3R,5S)-3,4,5-trimethylpiperazin-1-yl]phenyl]-6-oxo-4-(trifluoromethyl)-1H-pyridine-3-carboxamide]
The Kd of the first is 1.5-fold lower: 0.656 nM for the first, 0.985 nM for the second.

Compared with `C[C@@H]1CN(c2cc(F)c(-c3ccc(C#N)nc3)cc2NC(=O)c2c[nH]c(=O)cc2C(F)(F)F)C[C@H](C)N1C` [Example 131, N-[5-(6-cyanopyridin-3-yl)-4-fluoro-2-[(3R,5S)-3,4,5-trimethylpiperazin-1-yl]phenyl]-6-oxo-4-(trifluoromethyl)-1H-pyridine-3-carboxamide], `C[C@@H]1CN(c2cc(F)c(-c3ccc(OC(F)(F)F)cc3)cc2NC(=O)c2c[nH]c(=O)cc2C(F)(F)F)C[C@H](C)N1C` [Example 145, N-[4-fluoro-2-[(3R,5S)-3,4,5-trimethylpiperazin-1-yl]-5-[4-(trifluoromethoxy)phenyl]phenyl]-6-oxo-4-(trifluoromethyl)-1H-pyridine-3-carboxamide] is 2.8-fold higher in Kd: 2.43 nM for the first, 6.83 nM for the second.

Compared with `COc1cc(-c2cc(NC(=O)c3c[nH]c(=O)cc3C(F)(F)F)c(N3C[C@@H](C)N(C)[C@@H](C)C3)cc2F)cc(C(F)(F)F)n1` [Example 134, N-[4-fluoro-5-[2-methoxy-6-(trifluoromethyl)pyridin-4-yl]-2-[(3R,5S)-3,4,5-trimethylpiperazin-1-yl]phenyl]-6-oxo-4-(trifluoromethyl)-1H-pyridine-3-carboxamide], `COc1cc(-c2cc(NC(=O)c3c[nH]c(=O)cc3C(F)(F)F)c(N3C[C@@H](C)N(C)[C@@H](C)C3)cc2F)cc(C)n1` [Example 135, N-[4-fluoro-5-(2-methoxy-6-methylpyridin-4-yl)-2-[(3R,5S)-3,4,5-trimethylpiperazin-1-yl]phenyl]-6-oxo-4-(trifluoromethyl)-1H-pyridine-3-carboxamide] is 2.8-fold higher in Kd: 1.01 nM for the first, 2.81 nM for the second. The first binds more tightly here.

First: COc1ncc(-c2cc(NC(=O)c3c[nH]c(=O)cc3C(F)(F)F)c(N3C[C@@H](C)N(C)[C@@H](C)C3)cc2F)cc1C(F)(F)F [Example 136, N-[4-fluoro-5-[6-methoxy-5-(trifluoromethyl)pyridin-3-yl]-2-[(3R,5S)-3,4,5-trimethylpiperazin-1-yl]phenyl]-6-oxo-4-(trifluoromethyl)-1H-pyridine-3-carboxamide]
Second: C[C@@H]1CN(c2cc(F)c(C3=CCN(C(=O)OC(C)(C)C)CC3)cc2NC(=O)c2c[nH]c(=O)cc2C(F)(F)F)C[C@H](C)N1C [Example 143, tert-butyl 4-[2-fluoro-5-[[6-oxo-4-(trifluoromethyl)-1H-pyridine-3-carbonyl]amino]-4-[(3R,5S)-3,4,5-trimethylpiperazin-1-yl]phenyl]-3,6-dihydro-2H-pyridine-1-carboxylate]
The Kd of the first is 2.7-fold lower: 0.463 nM for the first, 1.24 nM for the second. The first binds more tightly here.

`COc1cc(C#N)c(C(=O)Nc2cc(-c3cnc(N4CCOCC4)nc3)c(F)cc2N2C[C@@H](C)N(C)[C@@H](C)C2)cn1` [Example 137, 4-cyano-N-[4-fluoro-5-(2-morpholin-4-ylpyrimidin-5-yl)-2-[(3R,5S)-3,4,5-trimethylpiperazin-1-yl]phenyl]-6-methoxypyridine-3-carboxamide] and `C[C@@H]1CN(c2cc(F)c(-c3cnc(N4CCOCC4)nc3)cc2NC(=O)c2cccc(Cl)c2F)C[C@H](C)N1C` [Example 140, 3-chloro-2-fluoro-N-[4-fluoro-5-(2-morpholin-4-ylpyrimidin-5-yl)-2-[(3R,5S)-3,4,5-trimethylpiperazin-1-yl]phenyl]benzamide] are within 1.5-fold of each other in Kd: 19.7 nM for the first, 18.8 nM for the second.
